The conditions of data set [1]: cited from earlier work.
In data set [2] the test system is histamine induced lethality. Conditions: guinea pig; cited from earlier work.
A further data set has as its system allergic rhinitis. As to conditions: compared with chlorpheniramine; cited from earlier work.
The test system of data set [3] is airway resistance caused by LTD4 (leukotriene D4). As to conditions: guinea pigs; cited from earlier work.
The conditions of data set [4]: in vivo; cited from earlier work.
For another data set, the target named is histamine H1 -receptor (Bos taurus, UniProt P30546). Put plainly: biochemical. As to conditions: pH 7.5, read-out: Percent Inhibition. The method, then: 32:1653-1663 (1979). Briefly, membranes from bovine cerebellum were incubated with [^3 H]pyrilamine and varying concentrations of test compound. The reactions were carried out in 50 mM sodium phosphate buffer (pH 7.5) at 25° C. for 30 minutes. The reaction was terminated by rapid vacuum filtration onto glass fiber filters. Radioactivity trapped on the filters was determined and compared to control values to acertain the interaction of the test compound with the H1 -receptor.
Chain of histamine H1 -receptor (P30546 whole entry): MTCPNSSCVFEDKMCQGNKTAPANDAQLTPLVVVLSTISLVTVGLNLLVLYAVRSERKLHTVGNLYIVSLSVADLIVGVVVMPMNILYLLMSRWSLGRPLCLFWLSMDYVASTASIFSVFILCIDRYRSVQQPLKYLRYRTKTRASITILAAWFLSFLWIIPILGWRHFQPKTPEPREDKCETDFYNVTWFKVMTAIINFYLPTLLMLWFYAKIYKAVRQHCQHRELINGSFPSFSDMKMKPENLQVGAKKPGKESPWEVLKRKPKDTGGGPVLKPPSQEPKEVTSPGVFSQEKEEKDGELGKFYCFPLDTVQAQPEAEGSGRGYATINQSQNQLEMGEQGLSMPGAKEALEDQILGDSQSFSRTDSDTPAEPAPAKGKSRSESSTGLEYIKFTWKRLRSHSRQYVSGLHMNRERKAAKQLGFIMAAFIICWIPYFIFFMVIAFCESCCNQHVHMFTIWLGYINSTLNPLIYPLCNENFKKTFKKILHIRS

As a reminder, the inhibition is how much of the control response was suppressed.

Consider `CC(C)(C)c1ccc(C(O)CCCN2CCC(C(O)(c3ccccc3)c3ccccc3)CC2)cc1` (racemic) [Terfenadine], for which, in data set [1] (administration to a human), the “adverse effects: cardiac arrhythmias” value is “cardiac arrhythmias, including ventricular tachyarrhythmias, torsades de pointes, and ventricular fibrillation”. Further, in data set [1] (coadministration with other drugs such as ketoconazole and erythromycin or upon overdose), the “occurrence of cardiac arrhythmias” value is “an increase in the occurrence of these cardiac arrhythmias”. In addition, the “sedation, gastrointestinal distress, dry mouth, and constipation or diarrhea” value in data set [1] (in vivo) was “relatively less sedation, gastrointestinal distress, dry mouth, and constipation or diarrhea”. In addition, in data set [2], the “protection against histamine induced lethality” value is on record as “protects against histamine induced lethality in the guinea pig”. Besides, in the data set with allergic rhinitis, the “clinical efficacy in allergic rhinitis” value is “slightly less effective than chlorpheniramine”. For the same compound, the “increase in airway resistance caused by LTD4” value in data set [3] was “suppressed”. For the same compound, in data set [4], the absorption entry was “well absorbed” and the metabolism entry is listed as “extensively metabolized”.

`CC(C)(C(=O)O)c1ccc([C@H](O)CCCN2CCC(C(O)(c3ccccc3)c3ccccc3)CC2)cc1` [R-(+)-terfenadine carboxylate]: at histamine H1 -receptor, the inhibition at 0.001 µM was 12.4%, the inhibition at 0.1 µM was 45.2% and the inhibition at 10 µM stood at 87.3%.

Regarding `CC(C)(C(=O)O)c1ccc([C@@H](O)CCCN2CCC(C(O)(c3ccccc3)c3ccccc3)CC2)cc1` [S-(-)-terfenadine carboxylate], at histamine H1 -receptor, the inhibition at 0.001 µM was 8.1%, the inhibition at 0.1 µM stood at 54.1% and the inhibition at 10 µM worked out at 88.7%.

The values are drawn from patent US5375693A (Sepracor, Inc., priority 1994, dated 1994).
